Experimental data reported in patent US11964953B2, “Substituted aminothiazoles as DGKzeta inhibitors for immune activation” (Bayer Aktiengesellschaft, priority 2020, dated 2024).

Each compound was assayed against human DGKζ (Homo sapiens (Human), UniProt Q13574) (assay: Human DGKζ kinase activity inhibition assay (ADP-Glo)). Details: in vitro human DGKζ kinase activity inhibition assay; read-out: IC50.
Type: biochemical
Outline: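 Enzyme was C-terminally FLAG-tagged full-length recombinant human DGKζ from baculovirus-infected insect cells. Substrate preparation used octyl-β-D-glucopyranoside in 50 mM MOPS pH 7.4 with sonication; ADP generated was quantified by ADP-Glo luminescence as activity measure.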

human DGKζ, sequence (Q13574 other isoform, or with tags, fused parts or gaps): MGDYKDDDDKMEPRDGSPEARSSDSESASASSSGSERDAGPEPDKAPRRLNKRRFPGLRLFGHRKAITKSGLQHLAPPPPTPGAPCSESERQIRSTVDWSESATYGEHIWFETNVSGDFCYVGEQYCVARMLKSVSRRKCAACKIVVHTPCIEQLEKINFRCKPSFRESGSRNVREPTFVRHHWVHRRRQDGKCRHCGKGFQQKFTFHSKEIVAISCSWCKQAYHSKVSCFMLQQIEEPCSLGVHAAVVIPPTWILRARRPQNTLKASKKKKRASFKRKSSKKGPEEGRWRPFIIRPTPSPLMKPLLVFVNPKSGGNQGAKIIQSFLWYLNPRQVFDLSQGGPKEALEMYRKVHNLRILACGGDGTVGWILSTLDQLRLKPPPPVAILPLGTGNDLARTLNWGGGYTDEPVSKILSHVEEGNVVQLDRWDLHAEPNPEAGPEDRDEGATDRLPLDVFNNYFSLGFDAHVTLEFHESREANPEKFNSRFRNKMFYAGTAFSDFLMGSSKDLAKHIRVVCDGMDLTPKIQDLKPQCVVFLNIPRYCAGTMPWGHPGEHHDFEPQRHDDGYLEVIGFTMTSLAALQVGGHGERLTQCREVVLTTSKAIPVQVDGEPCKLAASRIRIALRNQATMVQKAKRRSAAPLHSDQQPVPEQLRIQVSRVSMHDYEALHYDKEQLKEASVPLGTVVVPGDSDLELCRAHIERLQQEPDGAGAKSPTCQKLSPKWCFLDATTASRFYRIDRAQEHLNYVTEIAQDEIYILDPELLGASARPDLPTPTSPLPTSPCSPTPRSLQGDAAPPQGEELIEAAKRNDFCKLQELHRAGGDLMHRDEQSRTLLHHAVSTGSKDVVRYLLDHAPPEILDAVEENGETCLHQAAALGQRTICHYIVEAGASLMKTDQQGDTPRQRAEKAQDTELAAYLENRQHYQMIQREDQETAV

**Q.** Which IC50 does the source give for CC(C(N)=O)N(c1ccc(F)cc1)c1nc(N)c(C(=O)c2ccc3c(c2)CCC3)s1 (racemic) [Example 31, rac-2-(N-[4-amino-5-(indane-5-carbonyl)thiazol-2-yl]-4-fluoro-anilino)propanamide] here?
**A.** The IC50 was 43.5 nM.

**Q.** For COc1ccc(N(c2nc(N)c(C(=O)c3ccc(OC(F)F)cc3)s2)C(C)C(N)=O)cc1 (single isomer, unassigned) [Example 174.1, 2-(N-[4-amino-5-[4-(difluoromethoxy)benzoyl]thiazol-2-yl]-4-methoxy-anilino)propanamide], which IC50 is on record?
**A.** Its IC50 is 26 nM.

**Q.** With CC(C(N)=O)N(c1ccc(F)cc1)c1nc(N)c(C(=O)c2ccc(OCC(=O)Nc3ccc(Cl)cc3)cc2)s1 (racemic) [Example 119, rac-2-(N-[4-amino-5-[4-[2-(4-chloroanilino)-2-oxo-ethoxy]benzoyl]thiazol-2-yl]-4-fluoro-anilino)propanamide] as the compound, how does the IC50 read?
**A.** The IC50 was 4.54 nM.

**Q.** With Cc1cccc(N(c2nc(N)c(C(=O)c3ccccc3)s2)C(C)C(N)=O)c1 (single isomer, unassigned) [Example 76.1, 2-(N-(4-amino-5-benzoyl-thiazol-2-yl)-3-methyl-anilino)propanamide] as the compound, how does the IC50 read?
**A.** The IC50 was 114 nM.

**Q.** CC(C(N)=O)N(c1ccc(F)cc1)c1nc(N)c(C(=O)c2cccc(F)c2)s1 (racemic) [Example 16, rac-2-(N-[4-amino-5-(3-fluorobenzoyl)thiazol-2-yl]-4-fluoro-anilino)propanamide] was tested. Which IC50 did it give?
**A.** Its IC50 is 283 nM.

**Q.** CC(C(N)=O)N(c1ccc(F)cc1)c1nc(N)c(C(=O)c2ccc(C#N)cc2)s1 (single isomer, unassigned) [Example 33.1, 2-(N-[4-amino-5-(4-cyanobenzoyl)thiazol-2-yl]-4-fluoro-anilino)propanamide] was tested. Which IC50 did it give?
**A.** The IC50 was 8610 nM.

**Q.** CC(C(N)=O)N(c1ccc(F)c(F)c1)c1nc(N)c(C(=O)c2ccc(OCc3ccccc3)cc2)s1 (racemic) [Example 165, rac-2-(N-[4-amino-5-(4-benzyloxybenzoyl)thiazol-2-yl]-3,4-difluoro-anilino)propanamide] was tested. Which IC50 did it give?
**A.** The IC50 was 3 nM.

**Q.** Which IC50 does the source give for CC(C(N)=O)N(c1ccc(F)cc1)c1nc(N)c(C(=O)c2ccc(I)cc2)s1 (racemic) [Example 171, rac-2-(N-[4-amino-5-(4-iodobenzoyl)thiazol-2-yl]4-fluoro-anilino)propanamide] here?
**A.** The IC50 was 11 nM.

**Q.** How did the IC50 turn out when CC(C(N)=O)N(c1ccc(F)cc1)c1nc(N)c(C(=O)c2ccc(S(C)(=O)=O)cc2)s1 (racemic) [Example 19, rac-2-(N-[4-amino-5-(4-methylsulfonylbenzoyl)thiazol-2-yl]-4-fluoro-anilino)propanamide] was run?
**A.** Its IC50 is 200 nM.

**Q.** Cc1cc(C(=O)c2sc(N(c3ccc(F)cc3)C(C)C(N)=O)nc2N)ccn1 (single isomer, unassigned) [Example 187.1, 2-(N-[4-amino-5-(2-methylpyridine-4-carbonyl)thiazol-2-yl]-4-fluoro-anilino)propanamide] was tested. Which IC50 did it give?
**A.** The IC50 was 553 nM.

**Q.** CC(C(N)=O)N(c1ccc(F)cc1)c1nc(N)c(C(=O)c2ccc(OCC(=O)Nc3ccc(F)cc3)cc2)s1 (racemic) [Example 122, rac-2-(N-[4-amino-5-[4-[2-(4-fluoroanilino)-2-oxo-ethoxy]benzoyl]thiazol-2-yl]-4-fluoro-anilino)propanamide] was tested. Which IC50 did it give?
**A.** Its IC50 is 9.07 nM.

**Q.** Which IC50 does the source give for CC(C(N)=O)N(c1cccnc1)c1nc(N)c(C(=O)c2ccccc2)s1 (single isomer, unassigned) [Example 79.1, 2-[(4-amino-5-benzoyl-thiazol-2-yl)-(3-pyridyl)amino]propanamide] here?
**A.** Its IC50 is 1660 nM.

**Q.** Which IC50 does the source give for Cc1ccccc1N(C)C(=O)COc1ccc(C(=O)c2sc(N(c3ccc(F)cc3)C(C)C(N)=O)nc2N)cc1 (racemic) [Example 138, rac-2-(N-[4-amino-5-[4-[2-(N,2-dimethylanilino)-2-oxo-ethoxy]benzoyl]thiazol-2-yl]-4-fluoro-anilino)propanamide] here?
**A.** Its IC50 is 61.6 nM.

**Q.** For COCCNC(=O)c1ccc(C(=O)c2sc(N(c3ccc(F)cc3)C(C)C(N)=O)nc2N)cc1 (racemic) [Example 264, rac-4-[4-amino-2-(N-(2-amino-1-methyl-2-oxo-ethyl)-4-fluoro-anilino)thiazole-5-carbonyl]-N-(2-methoxyethyl)benzamide], which IC50 is on record?
**A.** Its IC50 is 376 nM.

**Q.** For CC(C(N)=O)N(c1ccc(F)cc1)c1nc(N)c(C(=O)c2ccc(Br)nc2)s1 (racemic) [Example 274, rac-2-(N-[4-amino-5-(6-bromopyridine-3-carbonyl)thiazol-2-yl]-4-fluoro-anilino)propanamide], which IC50 is on record?
**A.** The IC50 was 107 nM.

**Q.** Which IC50 does the source give for CC(C(N)=O)N(c1ccc(F)c(F)c1)c1nc(N)c(C(=O)c2ccc(O)cc2)s1 (single isomer, unassigned; enantiomer 1) [Example 287, 2-(N-[4-amino-5-(4-hydroxybenzoyl)thiazol-2-yl]-3,4-difluoro-anilino)propanamide (enantiomer 1)] here?
**A.** Its IC50 is 18 nM.

**Q.** Which IC50 does the source give for CC(C(N)=O)N(c1ccc(OC(F)F)nc1)c1nc(N)c(C(=O)c2ccc(OC(F)F)cc2)s1 (racemic) [Example 254, rac-2-[[4-amino-5-[4-(difluoromethoxy)benzoyl]thiazol-2-yl]-[6-(difluoromethoxy)-3-pyridyl]amino]propanamide] here?
**A.** Its IC50 is 32 nM.

**Q.** How did the IC50 turn out when CC(C(N)=O)N(c1ccc(F)cc1)c1nc(N)c(C(=O)c2ccc(OCC(=O)NC34CC5CC(CC(C5)C3)C4)cc2)s1 (single isomer, unassigned) [Example 142, 2-(N-[5-[4-[2-(1-adamantylamino)-2-oxo-ethoxy]benzoyl]-4-amino-thiazol-2-yl]-4-fluoro-anilino)propanamide] was run?
**A.** The IC50 was 14.5 nM.

**Q.** Which IC50 does the source give for CC(C(N)=O)N(c1ccc(F)cc1)c1nc(N)c(C(=O)c2ccc(OC(F)(F)F)cc2)s1 (racemic) [Example 40, rac-2-(N-[4-amino-5-[4-(trifluoromethoxy)benzoyl]thiazol-2-yl]-4-fluoro-anilino)propanamide] here?
**A.** The IC50 was 15.4 nM.

**Q.** CC(C(N)=O)N(c1ccc(F)cc1)c1nc(N)c(C(=O)c2ccc(OC(F)F)cc2)s1 (single isomer, unassigned) [Example 44.2, 2-(N-[4-amino-5-[4-(difluoromethoxy)benzoyl]thiazol-2-yl]-4-fluoro-anilino)propanamide] was tested. Which IC50 did it give?
**A.** The IC50 was 6.72 nM.

**Q.** COc1ccc(C(=O)c2sc(N(c3ccc(F)cc3)C(C)C(N)=O)nc2C)cc1 (racemic) [Example 176, rac-2-(4-fluoro-N-[5-(4-methoxybenzoyl)-4-methyl-thiazol-2-yl]anilino)propanamide] was tested. Which IC50 did it give?
**A.** Its IC50 is 91 nM.

**Q.** For CC(C(N)=O)N(c1ccc(F)cc1)c1nc(N)c(C(=O)c2ccc(N(C)C)cc2)s1 (racemic) [Example 180, rac-2-(N-[4-amino-5-[4-(dimethylamino)benzoyl]thiazol-2-yl]-4-fluoro-anilino)propanamide], which IC50 is on record?
**A.** Its IC50 is 62 nM.

**Q.** How did the IC50 turn out when CC(C(N)=O)N(c1ccc(OC(F)(F)F)c(F)c1)c1nc(N)c(C(=O)c2ccc(OC(F)F)nc2)s1 (racemic) [Example 221, rac-2-[N-[4-amino-5-[6-(difluoromethoxy)pyridine-3-carbonyl]thiazol-2-yl]-3-fluoro-4-(trifluoromethoxy)anilino]propanamide] was run?
**A.** Its IC50 is 31 nM.

**Q.** With CC(C(N)=O)N(c1ccc(OC(F)(F)F)c(Cl)c1)c1nc(N)c(C(=O)c2ccc(OC(F)F)cc2)s1 (racemic) [Example 224, rac-2-[N-[4-amino-5-[4-(difluoromethoxy)benzoyl]thiazol-2-yl]-3-chloro-4-(trifluoromethoxy)anilino]propanamide] as the compound, how does the IC50 read?
**A.** The IC50 was 45 nM.

**Q.** Which IC50 does the source give for CC(C(N)=O)N(c1ccc(F)c(F)c1)c1nc(N)c(C(=O)c2ccncc2)s1 (single isomer, unassigned) [Example 50.2, 2-(N-[4-amino-5-(pyridine-4-carbonyl)thiazol-2-yl]-3,4-difluoro-anilino)propanamide] here?
**A.** The IC50 was 14300 nM.

**Q.** With Cc1ccc(C(=O)c2sc(N(c3ccc(F)cc3)C(C)C(N)=O)nc2N)cc1 (racemic) [Example 63, rac-2-(N-[4-amino-5-(4-methylbenzoyl)thiazol-2-yl]-4-fluoro-anilino)propanamide] as the compound, how does the IC50 read?
**A.** Its IC50 is 33.9 nM.

**Q.** How did the IC50 turn out when CCC(C(N)=O)N(c1ccc(F)cc1)c1nc(N)c(C(=O)c2ccccc2)s1 (racemic) [Example 68, rac-2-[(4-amino-5-benzoyl-1,3-thiazol-2-yl)(4-fluorophenyl)amino]butanamide] was run?
**A.** The IC50 was 457 nM.

**Q.** Which IC50 does the source give for CC(C(N)=O)N(c1ccc(F)cc1)c1nc(N)c(C(=O)c2ccc(OCC(=O)N3CCC(N(C)C)CC3)cc2)s1 (racemic) [Example 136, rac-2-(N-[4-amino-5-[4-[2-[4-(dimethylamino)-1-piperidyl]-2-oxo-ethoxy]benzoyl]thiazol-2-yl]-4-fluoro-anilino)propanamide] here?
**A.** Its IC50 is 740 nM.

**Q.** With CC(C(N)=O)N(c1ccc(Cl)cc1)c1nc(N)c(C(=O)c2ccncc2)s1 (single isomer, unassigned) [Example 57.2, 2-(N-[4-amino-5-(pyridine-4-carbonyl)thiazol-2-yl]-4-chloro-anilino)propanamide] as the compound, how does the IC50 read?
**A.** Its IC50 is 14600 nM.

**Q.** CC(C(N)=O)N(c1ccc(F)cc1)c1nc(N)c(C(=O)c2ccc([N+](=O)[O-])cc2)s1 (racemic) [Example 175, rac-2-(N-[4-amino-5-(4-nitrobenzoyl)thiazol-2-yl]-4-fluoro-anilino)propanamide] was tested. Which IC50 did it give?
**A.** Its IC50 is 20 nM.

**Q.** CC(Oc1ccc(C(=O)c2sc(N(c3ccccc3)C(C)C(N)=O)nc2N)cc1)C(N)=O (single isomer, unassigned) [Example 45.3, 2-(N-[4-amino-5-[4-[2-amino-1-methyl-2-oxo-ethoxy]benzoyl]thiazol-2-yl]anilino)propanamide] was tested. Which IC50 did it give?
**A.** Its IC50 is 1050 nM.

**Q.** Cc1ccc(CNC(=O)COc2ccc(C(=O)c3sc(N(c4ccc(F)cc4)C(C)C(N)=O)nc3N)cc2)cc1 (racemic) [Example 126, rac-2-(N-[4-amino-5-[4-[2-oxo-2-(p-tolylmethylamino)ethoxy]benzoyl]thiazol-2-yl]-4-fluoro-anilino)propanamide] was tested. Which IC50 did it give?
**A.** The IC50 was 28.8 nM.

**Q.** How did the IC50 turn out when COc1ccc(C(=O)c2sc(N(c3ccc(Cl)c(F)c3)C(C)C(N)=O)nc2N)cn1 (single isomer, unassigned) [Example 172.2, 2-(N-[4-amino-5-(6-methoxypyridine-3-carbonyl)thiazol-2-yl]-4-chloro-3-fluoro-anilino)propanamide] was run?
**A.** The IC50 was 4890 nM.
